Source: US7989466B2, “Methods to inhibit or augment an inflammatory response” (Cambridge Enterprise Limited, priority 1999, dated 2011)
Where two headings read alike, the source gives them in different places. Positions of bridges follow the written chain, without caps; N, C: chain ends. Non-standard residues stand in square brackets, D forms with d. Residues, ends and D or L forms follow the SMILES beside them.

Columns and labels:
[1] = Mouse LD50 (modified LD50 technique); assay type: in vivo; conditions: for LD50: IV
[2] = Acute and 7-day repeat dose rat toxicity; assay type: in vivo; conditions: 1 or 10 mg (5-50 mg/kg) i.v.
Description: That is, all animals remained clinically normal throughout.

B cells = assay type: cell-based
[3] = system: RANTES induced THP-1 migration; test: THP-1 trans-well migration assay, RANTES as chemoattractant; assay type: cell-based, human; conditions: Homo sapiens, THP-1; read-out: ED50, RANTES chemotaxis assay
Method: To determine whether an agent inhibits a chemokine-induced activity, such as macrophage recruitment, varying amounts of the agent are mixed with cells in the presence of a known chemoattractant. For example, a range of known concentrations of an agent, e.g., a chemokine peptide, is incubated with a defined number (e.g., 10^4-10^6) of human THP-1 monocyte cells in individual wells of the top compartment of a trans-well plate. Chemokine (such as MCP-1, MIP1α, IL8 or SDF-1α), at a concentration known to cause significant migration of THP-1 cells in the trans-well migration assay, is placed in the lower compartment (FIG. 1). […] A standard curve consisting of a two-fold dilution series of THP-1 cells (in 29 μl) is prepared to accurately quantify the number of cells that have migrated. […] Absorbance of converted dye is measured at a wavelength of 595 nm using an ELISA plate reader. The number of migrated cells in each well is then determined by interpolation of the standard curve (see also Imai et al., J. Biol. Chem., 272, 15036 (1997)). […]
After incubation, the cells were gently removed from the top of the filter with a pipette, 20 μl of 20 mM EDTA in PBS was added into each top well, and the mixture was incubated for 20 minutes at 4° C. […] A standard curve was prepared to accurately quantify the number of THP-1 cells that had migrated. […]

[4] = molecular target: T1, short splice variant D2 dopamine receptor (Homo sapiens, UniProt P14416); test: Dopamine receptor membrane binding (3H-Spiperone); conditions: 100 μM highest concentration tested; read-out: ED50 for competition of spiperone binding to short splice variant D2 dopamine receptor
T1 construct: purchased RBI/Sigma D-179
Method: For dopamine receptor binding, membranes (D-179, RBI/Sigma) are diluted into binding buffer (75 mM Tris pH 7.4, 12.5 mM MgCl2 and 2 mM EDTA). For example, 10 μl of membranes are diluted in 500 μl of binding buffer (i.e., 1:50 dilution), which is aliquoted into labelled tubes. Cold competitor or test competitor is added, (e.g., 5 μl of 100× stock solution; 5 μl of 1 mM haloperidol solution (H-100, RBI/Sigma in DMSO). Radioligand is then added (3H-Spiperone, TRK 818, Amersham, 250 μCi in 250 μl, 10.5 μM at 95 Ci/mmol). For competition studies, 0.5 nM is used. A 100× stock (i.e., 50 nM) is made by diluting the commercial stock 1:210 in binding buffer, and 5 μl is added to every tube. Control tubes have radioligand but no membranes. The mixtures are vortexed, then spun very briefly. The mixtures are then incubated for 1 hour at 27° C. in a water bath. The mixture is filtered through GF/C filters over a vacuum. Each filter is pre-soaked in polyethyleneimine (0.3% in water; add 1 ml of 10% stock (P-261; RBI/Sigma) to 33 ml of MilliQ water). The tubes are washed with 2-3 ml of wash buffer (50 mM Tris pH 7.4) and the wash filtered. The filters are then rinsed with 3×5 ml of wash buffer, air dried, placed in a scintillation vial and 4.5 ml of scintillant added. The activity on the filter is then determined.

[5] = system: MCP-1 co-mitogenic effect, cultured smooth muscle cells; test: Co-mitogenic effect of MCP-1 on cultured smooth muscle cells; assay type: cell-based; conditions: 100 μM; MCP-1 with 0.5% fetal calf serum
Method: Many chemokines are co-mitogenic with low concentrations of FCS, e.g., 50 ng/ml MCP-1+0.5% FCS is a mitogen for smooth muscle cells. Assays well known to the art for determination of DNA synthesis induced by any known chemokine plus a low concentration (<5%) of FCS on suitable cells (e.g., smooth muscle cells) in the presence and absence of the agent may be employed to screen agents for such inhibitory activity. See Porreca et al., J. Vasc. Res., 34, 58 (1997), the disclosure of which is incorporated by reference herein.
Peptide 3(1-12)[MCP-1] […] MCP-1 has been reported to be a weak co-mitogen with 0.5% fetal calf serum for cultured smooth muscle cells. […] (SEQ ID NO:1) is an MCP-1 receptor antagonist. The observation that peptide 3(1-12)[MCP-1]

T1 sequence (P14416 1-414 isoform P14416-2): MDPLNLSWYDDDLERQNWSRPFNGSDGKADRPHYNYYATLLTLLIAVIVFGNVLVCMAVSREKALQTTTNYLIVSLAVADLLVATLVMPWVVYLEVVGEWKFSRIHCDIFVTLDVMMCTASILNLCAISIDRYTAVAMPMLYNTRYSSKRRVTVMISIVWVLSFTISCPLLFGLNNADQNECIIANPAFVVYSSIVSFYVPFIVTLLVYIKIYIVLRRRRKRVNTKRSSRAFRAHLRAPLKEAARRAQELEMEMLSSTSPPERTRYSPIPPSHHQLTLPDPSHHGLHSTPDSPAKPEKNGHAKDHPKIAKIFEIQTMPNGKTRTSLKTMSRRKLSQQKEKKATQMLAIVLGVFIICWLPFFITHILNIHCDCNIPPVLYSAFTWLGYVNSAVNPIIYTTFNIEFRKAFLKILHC

## CC[C@@H](C)[C@H]1NC(=O)[C@@H](CCC(N)=O)NC(=O)[C@H](N)CSSC[C@H](C(N)=O)NC(=O)[C@@H](CC(C)C)NC(=O)[C@@H](CC(=O)O)NC(=O)[C@H]2CCCN2C(=O)[C@@H](CCCCN)NC(=O)[C@@H](CCC(N)=O)NC(=O)[C@@H](CCCCN)NC(=O)[C@@H](Cc2c[nH]c3ccccc23)NC1=O (H-[dC][dQ][dI][dW][dK][dQ][dK][dP][dD][dL][dC]-NH2; disulfide 1-11; N-terminus assumed)
[1]; 11 mg i.p.
  lethality after intraperitoneal administration: did not result in lethality
[1]
  LD50: 11.4 mg/mouse
[1]; in vivo, read-out: LD50
  LD50: 569 mg/kg
[2]
  acute rat toxicity, clinical findings: no clinically detectable changes
B cells
  effect on proliferation of B cells to tetanus toxoid: no effect

## C=CCCCCCCCCC(=O)N[C@H]1CCC(=O)NC1=O [A-I (NR58.4), [3S]-3-(undec-10-enoylamino)piperidine-2,6-dione]
[3]
  EC50: 0.3 nM
[4]
  EC50: > 100000 nM

## EICADPKQKWVQ [peptide 3(1-12)[MCP-1]]
[5]
  effect on the co-mitogenic effect of MCP-1 for cultured smooth muscle cells: completely abolished
